According to ChEMBL document CHEMBL5678807, “A selective jumonji H3K27 demethylase inhibitor modulates the proinflammatory macrophage response” (Nature, 2012):

Experiments:
Macrophage [1] = test: Antiinflammatory activity in human primary macrophages assessed as effect on LPS-induced GDF9 gene expression at 30 uM measured after 2 hrs by RT-PCR array (reference value: 113 a.u.); assay type: functional
Macrophage [2] = test: Antiinflammatory activity in human primary macrophages assessed as effect on LPS-induced IFNA8 gene expression at 30 uM measured after 2 hrs by RT-PCR array (reference value: 425 a.u.); assay type: functional
Macrophage [3] = test: Antiinflammatory activity in human primary macrophages assessed as effect on LPS-induced IFNB1 gene expression at 30 uM measured after 2 hrs by RT-PCR array (reference value: 1415030 a.u.); assay type: functional
Macrophage [4] = test: Antiinflammatory activity in human primary macrophages assessed as effect on LPS-induced IFNG gene expression at 30 uM measured after 2 hrs by RT-PCR array (reference value: 240 a.u.); assay type: functional
Macrophage [5] = test: Antiinflammatory activity in human primary macrophages assessed as effect on LPS-induced IL11 gene expression at 30 uM measured after 2 hrs by RT-PCR array (reference value: 6 a.u.); assay type: functional
Macrophage [6] = test: Antiinflammatory activity in human primary macrophages assessed as effect on LPS-induced IL19 gene expression at 30 uM measured after 2 hrs by RT-PCR array (reference value: 13781 a.u.); assay type: functional
Macrophage [7] = test: Antiinflammatory activity in human primary macrophages assessed as effect on LPS-induced IL1F10 gene expression at 30 uM measured after 2 hrs by RT-PCR array (reference value: 125 a.u.); assay type: functional
Macrophage [8] = test: Antiinflammatory activity in human primary macrophages assessed as effect on LPS-induced IL1F5 gene expression at 30 uM measured after 2 hrs by RT-PCR array (reference value: 2464 a.u.); assay type: functional
Macrophage [9] = test: Antiinflammatory activity in human primary macrophages assessed as effect on LPS-induced IL1F7 gene expression at 30 uM measured after 2 hrs by RT-PCR array (reference value: 192 a.u.); assay type: functional
Macrophage [10] = test: Antiinflammatory activity in human primary macrophages assessed as effect on LPS-induced TGFA gene expression at 30 uM measured after 2 hrs by RT-PCR array (reference value: 3224 a.u.); assay type: functional
Macrophage [11] = test: Antiinflammatory activity in human primary macrophages assessed as effect on LPS-induced TGFB1 gene expression at 30 uM measured after 2 hrs by RT-PCR array (reference value: 72816 a.u.); assay type: functional
Macrophage [12] = test: Antiinflammatory activity in human primary macrophages assessed as effect on LPS-induced TNF gene expression at 30 uM measured after 2 hrs by RT-PCR array (reference value: 7222474 a.u.); assay type: functional
Macrophage [13] = test: Antiinflammatory activity in human primary macrophages assessed as effect on LPS-induced TNFSF10 gene expression at 30 uM measured after 2 hrs by RT-PCR array (reference value: 221027 a.u.); assay type: functional
Macrophage [14] = test: Antiinflammatory activity in human primary macrophages assessed as effect on LPS-induced TNFSF12 gene expression at 30 uM measured after 2 hrs by RT-PCR array (reference value: 12514 a.u.); assay type: functional
Macrophage [15] = test: Antiinflammatory activity in human primary macrophages assessed as effect on LPS-induced TNFSF13B gene expression at 30 uM measured after 2 hrs by RT-PCR array (reference value: 28045 a.u.); assay type: functional
[16] = molecular target: Prostaglandin G/H synthase 2 (Homo sapiens, UniProt P35354); test: Inhibition of human COX-2 by FLINT assay
Chain of Prostaglandin G/H synthase 2 (P35354 whole entry): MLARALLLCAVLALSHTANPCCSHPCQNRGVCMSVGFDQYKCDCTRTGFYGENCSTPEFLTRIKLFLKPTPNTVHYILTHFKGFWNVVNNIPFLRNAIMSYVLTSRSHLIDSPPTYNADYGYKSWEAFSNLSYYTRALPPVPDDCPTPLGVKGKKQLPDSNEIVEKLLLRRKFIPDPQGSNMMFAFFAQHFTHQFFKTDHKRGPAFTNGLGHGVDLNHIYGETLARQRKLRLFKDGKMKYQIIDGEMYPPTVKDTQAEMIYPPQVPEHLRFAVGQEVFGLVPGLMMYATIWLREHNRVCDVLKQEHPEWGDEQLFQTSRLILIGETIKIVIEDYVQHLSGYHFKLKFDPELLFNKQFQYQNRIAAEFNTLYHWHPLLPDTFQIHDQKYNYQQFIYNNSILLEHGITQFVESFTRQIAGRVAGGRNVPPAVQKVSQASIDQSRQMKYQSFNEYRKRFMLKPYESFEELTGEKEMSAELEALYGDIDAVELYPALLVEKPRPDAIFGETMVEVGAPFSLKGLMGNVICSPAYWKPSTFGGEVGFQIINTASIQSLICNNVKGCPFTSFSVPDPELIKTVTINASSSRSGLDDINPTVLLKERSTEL

Histone deacetylase 4 = Histone deacetylase 4 (Homo sapiens, UniProt P56524); test: Inhibition of human HDAC4 by FLINT assay
Chain of Histone deacetylase 4 (P56524 whole entry): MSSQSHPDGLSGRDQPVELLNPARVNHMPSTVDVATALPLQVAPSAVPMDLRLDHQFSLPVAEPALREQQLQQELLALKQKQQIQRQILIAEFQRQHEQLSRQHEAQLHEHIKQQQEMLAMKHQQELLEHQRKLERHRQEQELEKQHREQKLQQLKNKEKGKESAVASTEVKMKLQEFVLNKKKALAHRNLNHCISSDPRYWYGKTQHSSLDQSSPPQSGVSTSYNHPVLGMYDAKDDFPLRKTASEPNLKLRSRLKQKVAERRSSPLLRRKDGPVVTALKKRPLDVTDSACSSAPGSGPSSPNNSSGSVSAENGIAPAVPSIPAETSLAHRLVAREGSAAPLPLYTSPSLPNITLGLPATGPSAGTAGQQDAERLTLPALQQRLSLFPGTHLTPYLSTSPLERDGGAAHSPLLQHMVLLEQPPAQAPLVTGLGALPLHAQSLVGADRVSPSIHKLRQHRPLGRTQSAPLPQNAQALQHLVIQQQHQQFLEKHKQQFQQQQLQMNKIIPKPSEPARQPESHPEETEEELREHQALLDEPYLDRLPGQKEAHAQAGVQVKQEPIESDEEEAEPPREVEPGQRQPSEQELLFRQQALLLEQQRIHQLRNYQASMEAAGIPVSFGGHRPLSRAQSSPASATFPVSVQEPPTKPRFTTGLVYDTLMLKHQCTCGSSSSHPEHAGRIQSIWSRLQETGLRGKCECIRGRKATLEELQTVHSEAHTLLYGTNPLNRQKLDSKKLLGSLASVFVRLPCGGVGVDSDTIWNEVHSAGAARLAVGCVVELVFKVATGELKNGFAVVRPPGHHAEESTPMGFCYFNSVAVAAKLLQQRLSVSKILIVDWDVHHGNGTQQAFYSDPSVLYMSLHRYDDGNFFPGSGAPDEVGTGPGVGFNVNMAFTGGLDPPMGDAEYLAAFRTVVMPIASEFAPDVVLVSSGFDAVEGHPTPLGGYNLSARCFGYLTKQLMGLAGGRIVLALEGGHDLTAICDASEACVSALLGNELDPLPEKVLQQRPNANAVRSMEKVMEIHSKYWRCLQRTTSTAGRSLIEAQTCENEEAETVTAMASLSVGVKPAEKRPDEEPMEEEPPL

[17] = molecular target: Protein deacetylase HDAC6 (Homo sapiens, UniProt Q9UBN7); test: Inhibition of human HDAC6 by FLINT assay
Histone deacetylase 9 = Histone deacetylase 9 (Homo sapiens, UniProt Q9UKV0); test: Inhibition of human HDAC9 by FLINT assay
[18] = molecular target: Polyamine deacetylase HDAC10 (Homo sapiens, UniProt Q969S8); test: Inhibition of human HDAC10 by FLINT assay
Histone deacetylase 11 = Histone deacetylase 11 (Homo sapiens, UniProt Q96DB2); test: Inhibition of human HDAC11 by FLINT assay
Chain of Histone deacetylase 11 (Q96DB2 whole entry): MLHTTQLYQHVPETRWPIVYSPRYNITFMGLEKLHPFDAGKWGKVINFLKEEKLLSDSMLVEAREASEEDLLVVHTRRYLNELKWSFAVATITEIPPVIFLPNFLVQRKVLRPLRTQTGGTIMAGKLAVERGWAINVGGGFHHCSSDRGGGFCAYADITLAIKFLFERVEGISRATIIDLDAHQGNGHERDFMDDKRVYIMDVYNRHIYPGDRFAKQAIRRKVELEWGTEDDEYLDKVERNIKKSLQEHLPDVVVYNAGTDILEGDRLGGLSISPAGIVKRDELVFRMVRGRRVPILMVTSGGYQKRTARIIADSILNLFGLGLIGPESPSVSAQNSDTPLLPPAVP

[19] = molecular target: Alpha-2C adrenergic receptor (Homo sapiens, UniProt P18825); test: Agonist activity at human alpha 2C adrenoceptor by TR-FRET assay
Chain of Alpha-2C adrenergic receptor (P18825 whole entry): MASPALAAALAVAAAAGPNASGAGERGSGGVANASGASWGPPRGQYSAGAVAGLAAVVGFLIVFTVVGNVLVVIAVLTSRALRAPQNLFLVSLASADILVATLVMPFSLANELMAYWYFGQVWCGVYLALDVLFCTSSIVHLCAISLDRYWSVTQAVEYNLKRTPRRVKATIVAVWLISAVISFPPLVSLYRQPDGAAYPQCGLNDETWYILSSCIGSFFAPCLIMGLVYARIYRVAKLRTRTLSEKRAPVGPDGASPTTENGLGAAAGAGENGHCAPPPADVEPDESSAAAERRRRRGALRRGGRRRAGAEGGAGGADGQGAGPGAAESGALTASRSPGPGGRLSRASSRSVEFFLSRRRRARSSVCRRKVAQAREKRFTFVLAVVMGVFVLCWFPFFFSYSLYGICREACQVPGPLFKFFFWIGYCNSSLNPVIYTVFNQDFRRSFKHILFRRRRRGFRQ

D(2) dopamine receptor = D(2) dopamine receptor (Homo sapiens, UniProt P14416); test: Agonist activity at human dopamine 2 by SPA; assay type: functional
Histamine H1 receptor = Histamine H1 receptor (Homo sapiens, UniProt P35367); test: Antagonist activity at human HRH1 by intracellular Ca luminescence assay; assay type: functional, cell-based
Chain of Histamine H1 receptor (P35367 whole entry): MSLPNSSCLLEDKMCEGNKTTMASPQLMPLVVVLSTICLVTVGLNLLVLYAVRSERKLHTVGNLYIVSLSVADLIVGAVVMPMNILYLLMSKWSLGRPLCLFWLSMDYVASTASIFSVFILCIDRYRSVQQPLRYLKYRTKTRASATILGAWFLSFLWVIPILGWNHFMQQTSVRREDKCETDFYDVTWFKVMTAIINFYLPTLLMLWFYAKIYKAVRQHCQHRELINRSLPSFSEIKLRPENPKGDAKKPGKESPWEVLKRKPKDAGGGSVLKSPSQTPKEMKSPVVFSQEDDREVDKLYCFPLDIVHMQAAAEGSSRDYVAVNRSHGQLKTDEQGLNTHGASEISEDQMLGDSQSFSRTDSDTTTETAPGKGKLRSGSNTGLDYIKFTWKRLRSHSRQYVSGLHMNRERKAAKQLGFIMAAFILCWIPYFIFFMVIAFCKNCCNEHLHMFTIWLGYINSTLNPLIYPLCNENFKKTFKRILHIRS

[20] = molecular target: T1, Muscarinic acetylcholine receptor M1 (Homo sapiens, UniProt P11229); test: Agonist activity at human CHRM1 by intracellular Ca fluorescence assay; assay type: functional, cell-based
T1 sequence (P11229 whole entry): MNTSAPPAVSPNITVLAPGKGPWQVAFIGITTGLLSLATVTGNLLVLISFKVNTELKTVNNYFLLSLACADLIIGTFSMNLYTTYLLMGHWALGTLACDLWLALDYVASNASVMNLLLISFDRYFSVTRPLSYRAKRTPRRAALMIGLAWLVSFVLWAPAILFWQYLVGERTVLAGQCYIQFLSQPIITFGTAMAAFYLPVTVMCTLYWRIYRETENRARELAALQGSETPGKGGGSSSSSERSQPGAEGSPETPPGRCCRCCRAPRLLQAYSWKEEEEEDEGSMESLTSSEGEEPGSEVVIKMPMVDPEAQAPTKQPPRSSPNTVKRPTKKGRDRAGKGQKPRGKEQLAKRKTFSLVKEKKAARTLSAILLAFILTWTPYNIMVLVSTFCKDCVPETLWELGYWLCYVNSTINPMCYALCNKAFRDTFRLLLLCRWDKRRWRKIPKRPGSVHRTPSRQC

[21] = molecular target: T1, Muscarinic acetylcholine receptor M1; test: Antagonist activity at human CHRM1 by intracellular Ca fluorescence assay; assay type: functional, cell-based
[22] = molecular target: Kappa-type opioid receptor (Homo sapiens, UniProt P41145); test: Antagonist activity at human OPRK-1 by SPA; assay type: functional
Chain of Kappa-type opioid receptor (P41145 whole entry): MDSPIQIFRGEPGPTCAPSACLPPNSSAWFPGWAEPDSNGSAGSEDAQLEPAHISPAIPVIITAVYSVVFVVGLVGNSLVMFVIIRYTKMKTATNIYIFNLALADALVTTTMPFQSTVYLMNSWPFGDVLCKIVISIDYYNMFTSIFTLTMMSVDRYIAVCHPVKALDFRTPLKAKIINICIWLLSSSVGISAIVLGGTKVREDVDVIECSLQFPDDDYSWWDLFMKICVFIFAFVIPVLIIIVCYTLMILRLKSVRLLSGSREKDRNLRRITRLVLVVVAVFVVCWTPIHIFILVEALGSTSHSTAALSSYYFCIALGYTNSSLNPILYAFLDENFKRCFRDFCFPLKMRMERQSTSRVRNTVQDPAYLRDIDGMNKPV

Mu-type opioid receptor = Mu-type opioid receptor (Homo sapiens, UniProt P35372); test: Antagonist activity at human OPRM-1 by SPA; assay type: functional
Chain of Mu-type opioid receptor (P35372 whole entry): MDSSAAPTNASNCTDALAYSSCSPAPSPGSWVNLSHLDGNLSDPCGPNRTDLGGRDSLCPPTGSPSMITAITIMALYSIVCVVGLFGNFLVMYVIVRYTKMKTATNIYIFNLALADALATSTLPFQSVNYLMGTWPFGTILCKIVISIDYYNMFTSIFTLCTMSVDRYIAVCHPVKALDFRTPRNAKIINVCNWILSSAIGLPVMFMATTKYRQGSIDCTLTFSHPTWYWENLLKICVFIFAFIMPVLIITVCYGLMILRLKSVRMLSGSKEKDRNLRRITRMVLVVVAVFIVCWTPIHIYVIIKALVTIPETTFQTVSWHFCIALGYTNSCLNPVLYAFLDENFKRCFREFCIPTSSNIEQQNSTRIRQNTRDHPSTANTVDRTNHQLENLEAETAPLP

Vasopressin V1a receptor = Vasopressin V1a receptor (Homo sapiens, UniProt P37288); test: Antagonist activity at human vasopressin V1a by intracellular Ca luminescence assay; assay type: functional, cell-based
[23] = molecular target: Potassium voltage-gated channel subfamily A member 5 (Homo sapiens, UniProt P22460); test: Blockade of human Kv1.5 by electrophysiology assay
PXR (NR1I2) = PXR (NR1I2) (Homo sapiens, UniProt O75469); test: Agonist activity at human PXR by luciferase reporter assay
Chain of PXR (NR1I2) (O75469 whole entry): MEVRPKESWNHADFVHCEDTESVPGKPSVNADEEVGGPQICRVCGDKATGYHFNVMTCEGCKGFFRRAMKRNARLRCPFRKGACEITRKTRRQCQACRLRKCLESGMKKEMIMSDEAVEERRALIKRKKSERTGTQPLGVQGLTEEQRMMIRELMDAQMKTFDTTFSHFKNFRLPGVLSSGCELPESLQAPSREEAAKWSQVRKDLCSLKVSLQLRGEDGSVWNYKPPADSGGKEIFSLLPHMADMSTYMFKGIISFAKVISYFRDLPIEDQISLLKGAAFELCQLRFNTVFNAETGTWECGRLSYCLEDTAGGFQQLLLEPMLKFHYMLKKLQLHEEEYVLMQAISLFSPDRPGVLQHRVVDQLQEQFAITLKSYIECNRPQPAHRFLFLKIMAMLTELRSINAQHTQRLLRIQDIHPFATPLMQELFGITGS

[24] = molecular target: Sodium-dependent serotonin transporter (Homo sapiens, UniProt P31645); test: Binding affinity to human SERT by SPA
Chain of Sodium-dependent serotonin transporter (P31645 whole entry): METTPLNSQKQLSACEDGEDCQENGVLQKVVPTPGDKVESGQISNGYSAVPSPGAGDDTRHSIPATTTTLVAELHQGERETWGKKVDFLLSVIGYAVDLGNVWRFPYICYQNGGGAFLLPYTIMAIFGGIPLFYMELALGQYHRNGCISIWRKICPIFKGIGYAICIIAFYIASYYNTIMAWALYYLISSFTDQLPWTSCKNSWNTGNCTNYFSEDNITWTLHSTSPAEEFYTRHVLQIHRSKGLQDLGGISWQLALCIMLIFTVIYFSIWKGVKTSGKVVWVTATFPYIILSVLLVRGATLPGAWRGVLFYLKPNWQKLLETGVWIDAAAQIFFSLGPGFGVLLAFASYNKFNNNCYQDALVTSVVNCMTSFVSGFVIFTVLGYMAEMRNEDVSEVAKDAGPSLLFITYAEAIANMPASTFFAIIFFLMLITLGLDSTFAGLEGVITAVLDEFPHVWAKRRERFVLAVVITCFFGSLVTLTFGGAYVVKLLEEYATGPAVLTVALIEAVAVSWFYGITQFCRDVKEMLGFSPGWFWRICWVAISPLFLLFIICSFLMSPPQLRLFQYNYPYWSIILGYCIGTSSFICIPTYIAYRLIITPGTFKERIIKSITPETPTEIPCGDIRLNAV

[25] = molecular target: Lysine-specific demethylase 4E (Homo sapiens, UniProt B2RXH2); test: Inhibition of human JmjD2e using H3K27(me3) as substrate preincubated for 10 mins followed by substrate addition and measured after 7 mins in presence of alpha-KG by RapidFire Mass Spectrometry

## CCOC(=O)CCNc1cc(N2CCc3ccccc3CC2)nc(-c2ccccn2)n1
Macrophage [1]
  Activity: 15 a.u.
Macrophage [2]
  Activity: 1012 a.u.
Macrophage [3]
  Activity: 153760 a.u.
Macrophage [4]
  Activity: 298 a.u.
Macrophage [5]
  Activity: 403 a.u.
Macrophage [6]
  Activity: 1216 a.u.
Macrophage [7]
  Activity: 11 a.u.
Macrophage [8]
  Activity: 233 a.u.
Macrophage [9]
  Activity: 360 a.u.
Macrophage [10]
  Activity: 3241 a.u.
Macrophage [11]
  Activity: 50103 a.u.
Macrophage [12]
  Activity: 1593909 a.u.
Macrophage [13]
  Activity: 39793 a.u.
Macrophage [14]
  Activity: 8686 a.u.
Macrophage [15]
  Activity: 18715 a.u.

## O=C(O)CCNc1cc(N2CCc3ccccc3CC2)nc(-c2ccccn2)n1
[16]
  XC50: > 63 µM
Histone deacetylase 4
  XC50: > 300 µM
[17]
  XC50: > 300 µM
Histone deacetylase 9
  XC50: > 300 µM
[18]
  XC50: > 300 µM
Histone deacetylase 11
  XC50: > 300 µM
[19]
  XC50: > 32 µM
D(2) dopamine receptor
  XC50: > 100 µM
Histamine H1 receptor
  XC50: > 40 µM
[20]
  XC50: > 16 µM
[21]
  XC50: > 16 µM
[22]
  XC50: 50 µM
Mu-type opioid receptor
  XC50: 50 µM
Vasopressin V1a receptor
  XC50: > 50 µM
[23]
  XC50: > 50 µM
PXR (NR1I2)
  XC50: > 50 µM
[24]
  XC50: > 100 µM

## O=C(O)CCNc1cc(N2CCc3ccccc3CC2)nc(-c2cccnc2)n1
[25]
  IC50: > 100 µM
[16]
  XC50: > 63 µM
Histone deacetylase 4
  XC50: > 300 µM
[17]
  XC50: > 300 µM
Histone deacetylase 9
  XC50: > 300 µM
[18]
  XC50: > 300 µM
Histone deacetylase 11
  XC50: > 300 µM
[19]
  XC50: > 32 µM
D(2) dopamine receptor
  XC50: > 100 µM
Histamine H1 receptor
  XC50: > 40 µM
[20]
  XC50: > 16 µM
[21]
  XC50: > 16 µM
[22]
  XC50: 50 µM
Mu-type opioid receptor
  XC50: 63 µM
Vasopressin V1a receptor
  XC50: 4.9 µM
[23]
  XC50: > 50 µM
PXR (NR1I2)
  XC50: 10 µM
[24]
  XC50: > 100 µM

## CCOC(=O)CCNc1cc(N2CCc3ccccc3CC2)nc(-c2cccnc2)n1
Macrophage [1]
  Activity: 64 a.u.
Macrophage [2]
  Activity: 431 a.u.
Macrophage [3]
  Activity: 1501879 a.u.
Macrophage [4]
  Activity: 60 a.u.
Macrophage [5]
  Activity: 32 a.u.
Macrophage [6]
  Activity: 1914 a.u.
Macrophage [7]
  Activity: 102 a.u.
Macrophage [8]
  Activity: 2254 a.u.
Macrophage [9]
  Activity: 33 a.u.
Macrophage [10]
  Activity: 2862 a.u.
Macrophage [11]
  Activity: 49233 a.u.
Macrophage [12]
  Activity: 5261995 a.u.
Macrophage [13]
  Activity: 132521 a.u.
Macrophage [14]
  Activity: 10108 a.u.
Macrophage [15]
  Activity: 22792 a.u.
